What was measured:
D(1A) dopamine receptor = D(1A) dopamine receptor (Homo sapiens, UniProt P21728); assay: DRUGMATRIX: Dopamine D1 radioligand binding (ligand: [3H] SCH-23390); assay type: cell membranes, CHO, Membrane; conditions: cho; Not Active = under 50% inhibition at 10 µM
Calcitonin receptor = target: T1, Calcitonin receptor (Homo sapiens, UniProt P30988); assay type: cell membranes, Membrane; conditions: t47d; also: in other assays of this panel Not Active means under 50% inhibition at 10 µM
T1 sequence (P30988 whole entry): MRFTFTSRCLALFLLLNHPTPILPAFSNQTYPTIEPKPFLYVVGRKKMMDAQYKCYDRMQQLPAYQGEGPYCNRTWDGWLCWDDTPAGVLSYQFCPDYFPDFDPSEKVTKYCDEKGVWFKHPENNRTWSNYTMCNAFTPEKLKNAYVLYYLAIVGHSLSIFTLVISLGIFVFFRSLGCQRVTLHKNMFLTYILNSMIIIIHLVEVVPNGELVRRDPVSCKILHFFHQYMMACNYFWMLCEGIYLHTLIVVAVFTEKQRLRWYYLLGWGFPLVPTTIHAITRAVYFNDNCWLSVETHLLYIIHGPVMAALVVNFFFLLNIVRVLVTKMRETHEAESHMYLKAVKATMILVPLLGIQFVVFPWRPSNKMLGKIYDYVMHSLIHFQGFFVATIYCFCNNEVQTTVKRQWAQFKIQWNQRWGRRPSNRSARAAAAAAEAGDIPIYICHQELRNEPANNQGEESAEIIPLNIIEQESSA

[1] = DRUGMATRIX: Glutamate, NMDA, Phencyclidine radioligand binding (ligand: [3H] TCP); assay type: cell membranes, Rattus norvegicus, Wistar, Cerebral cortex, Membrane; conditions: Not Active = under 50% inhibition at 10 µM
[2] = DRUGMATRIX: Sodium/nucleoside co-transporter radioligand binding (ligand: nitrobenzylthioinosine); assay type: cell membranes, Cavia porcellus, Dunkin-Hartley, Cerebral cortex, Membrane; conditions: Not Active = under 50% inhibition at 10 µM
[3] = DRUGMATRIX: Serotonin (5-Hydroxytryptamine) 5-HT3 radioligand binding (ligand: [3H] GR-65630); assay type: cell membranes, Membrane; conditions: hek293; Not Active = under 50% inhibition at 10 µM
[4] = target: Protein phosphatase 3 catalytic subunit alpha (Homo sapiens, UniProt Q08209); set-up: species or system Escherichia coli;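 also: inhibition of calcineurin (PP2B) enzyme activity, measured with DiFMUP as the substrate; in other assays of this panel Not Active means under 50% inhibition at 10 µM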
[5] = DRUGMATRIX: Sigma2 radioligand binding (ligand: [3H] Ifenprodil); assay type: cell membranes, Rattus norvegicus, Wistar, Brain, Membrane; conditions: Not Active = under 50% inhibition at 10 µM
[6] = target: 5-hydroxytryptamine receptor 4 (Cavia porcellus, UniProt O70528); assay type: cell membranes, Dunkin-Hartley, Striatum, Membrane; also: in other assays of this panel Not Active means under 50% inhibition at 10 µM
[7] = target: Mitogen-activated protein kinase 14 (Homo sapiens, UniProt Q16539); set-up: species or system Escherichia coli;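 also: inhibition of p38alpha enzyme activity in a biochemical kinase assay, with myelin basic protein serving as substrate; in other assays of this panel Not Active means under 50% inhibition at 10 µM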
Neutrophil elastase = target: T2, Neutrophil elastase (Homo sapiens, UniProt P08246); assay type: tissue-based
T2 sequence (P08246 whole entry): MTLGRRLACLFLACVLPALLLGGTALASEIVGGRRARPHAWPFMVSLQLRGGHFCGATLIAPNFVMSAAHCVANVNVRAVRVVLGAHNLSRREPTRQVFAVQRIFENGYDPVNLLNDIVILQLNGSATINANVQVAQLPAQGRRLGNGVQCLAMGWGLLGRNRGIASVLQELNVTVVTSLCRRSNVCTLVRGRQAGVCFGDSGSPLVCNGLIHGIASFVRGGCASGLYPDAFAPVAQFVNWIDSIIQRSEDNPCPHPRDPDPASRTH

[8] = target: Mitogen-activated protein kinase 1 (Homo sapiens, UniProt P28482); assay: DRUGMATRIX: Protein Serine/Threonine Kinase, ERK2 enzyme inhibition (substrate: Myelin Basic Protein); set-up: species or system Escherichia coli; conditions: Not Active = under 50% inhibition at 10 µM
[9] = target: Sodium-dependent dopamine transporter (Homo sapiens, UniProt Q01959); assay: DRUGMATRIX: Dopamine Transporter radioligand binding (ligand: [125I] RTI-55); assay type: cell membranes, CHO-K1, Membrane; conditions: Not Active = under 50% inhibition at 10 µM
[10] = target: T3, Muscarinic acetylcholine receptor M4 (Homo sapiens, UniProt P08173); assay type: cell membranes, CHO-K1, Membrane; conditions: cho-k1; also: in other assays of this panel Not Active means under 50% inhibition at 10 µM
T3 sequence (P08173 whole entry): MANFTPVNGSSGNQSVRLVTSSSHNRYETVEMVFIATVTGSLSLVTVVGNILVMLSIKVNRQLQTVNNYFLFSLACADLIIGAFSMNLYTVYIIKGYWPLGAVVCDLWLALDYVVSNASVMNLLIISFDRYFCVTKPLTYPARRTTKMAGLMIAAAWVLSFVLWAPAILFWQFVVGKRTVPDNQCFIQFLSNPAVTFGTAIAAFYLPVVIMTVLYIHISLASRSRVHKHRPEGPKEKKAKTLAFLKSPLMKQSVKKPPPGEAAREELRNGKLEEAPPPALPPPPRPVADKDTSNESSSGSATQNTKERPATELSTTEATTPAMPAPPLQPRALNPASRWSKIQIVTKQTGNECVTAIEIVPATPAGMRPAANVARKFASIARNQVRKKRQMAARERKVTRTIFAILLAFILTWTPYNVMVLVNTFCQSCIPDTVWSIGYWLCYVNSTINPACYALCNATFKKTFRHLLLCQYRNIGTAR

[11] = DRUGMATRIX: GABAA, Muscimol, Central radioligand binding (ligand: [3H] Muscimol); assay type: cell membranes, Rattus norvegicus, Wistar, Brain, Membrane; conditions: Not Active = under 50% inhibition at 10 µM
[12] = DRUGMATRIX: Phorbol Ester radioligand binding (ligand: [3H] PDBu); assay type: cell membranes, Mus musculus, ICR, Brain, Membrane; conditions: Not Active = under 50% inhibition at 10 µM
[13] = target: cGMP-specific 3',5'-cyclic phosphodiesterase (Homo sapiens, UniProt O76074); assay: DRUGMATRIX: Phosphodiesterase PDE5 enzyme inhibition (substrate: [3H]cGMP + cGMP); assay type: tissue-based, Platelet; conditions: platelet; Not Active = under 50% inhibition at 10 µM
[14] = DRUGMATRIX: Glutamate, AMPA radioligand binding (ligand: [3H] AMPA); assay type: cell membranes, Rattus norvegicus, Wistar, Cerebral cortex, Membrane; conditions: Not Active = under 50% inhibition at 10 µM
[15] = target: Tyrosine-protein kinase Fyn (Homo sapiens, UniProt P06241); assay: biochemical; assay type: cell-based, Insect cells
[16] = target: T4, C-X-C chemokine receptor type 1 (Homo sapiens, UniProt P25024); also: in other assays of this panel Not Active means under 50% inhibition at 10 µM
T4 sequence (P25024 whole entry): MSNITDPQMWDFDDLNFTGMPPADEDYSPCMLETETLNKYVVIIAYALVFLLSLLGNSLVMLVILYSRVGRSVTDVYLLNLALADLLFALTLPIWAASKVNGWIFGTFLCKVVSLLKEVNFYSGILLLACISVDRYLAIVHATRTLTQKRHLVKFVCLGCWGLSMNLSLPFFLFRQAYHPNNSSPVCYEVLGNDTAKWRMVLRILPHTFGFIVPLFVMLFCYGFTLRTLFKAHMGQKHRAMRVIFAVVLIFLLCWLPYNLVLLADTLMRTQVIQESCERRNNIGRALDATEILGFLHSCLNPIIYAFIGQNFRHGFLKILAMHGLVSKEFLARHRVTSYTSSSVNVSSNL

Insulin receptor = Insulin receptor (Rattus norvegicus, UniProt P15127); assay type: cell membranes, Wistar, Liver, Membrane; also: in other assays of this panel Not Active means under 50% inhibition at 10 µM
Chain of Insulin receptor (P15127 27-759 limits assumed): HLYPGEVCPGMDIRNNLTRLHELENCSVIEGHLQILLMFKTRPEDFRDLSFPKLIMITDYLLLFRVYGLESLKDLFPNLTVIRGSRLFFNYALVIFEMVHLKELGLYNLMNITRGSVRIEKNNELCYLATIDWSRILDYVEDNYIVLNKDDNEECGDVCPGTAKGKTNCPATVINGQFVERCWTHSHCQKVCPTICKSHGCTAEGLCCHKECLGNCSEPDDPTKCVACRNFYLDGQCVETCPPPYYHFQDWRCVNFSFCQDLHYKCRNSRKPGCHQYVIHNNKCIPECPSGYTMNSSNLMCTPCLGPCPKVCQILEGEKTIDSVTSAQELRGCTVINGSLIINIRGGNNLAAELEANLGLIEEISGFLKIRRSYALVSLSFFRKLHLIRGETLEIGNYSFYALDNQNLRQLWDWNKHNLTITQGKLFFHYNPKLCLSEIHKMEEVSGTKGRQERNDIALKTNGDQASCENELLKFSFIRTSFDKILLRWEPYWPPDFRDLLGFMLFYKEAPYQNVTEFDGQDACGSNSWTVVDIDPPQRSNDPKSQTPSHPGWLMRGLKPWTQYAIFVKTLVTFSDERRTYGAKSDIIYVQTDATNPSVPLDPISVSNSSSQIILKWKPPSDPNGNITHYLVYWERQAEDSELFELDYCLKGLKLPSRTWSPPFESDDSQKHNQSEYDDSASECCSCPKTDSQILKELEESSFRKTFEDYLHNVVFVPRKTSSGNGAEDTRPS
Chain of Insulin receptor (P15127 764-1383 limits assumed): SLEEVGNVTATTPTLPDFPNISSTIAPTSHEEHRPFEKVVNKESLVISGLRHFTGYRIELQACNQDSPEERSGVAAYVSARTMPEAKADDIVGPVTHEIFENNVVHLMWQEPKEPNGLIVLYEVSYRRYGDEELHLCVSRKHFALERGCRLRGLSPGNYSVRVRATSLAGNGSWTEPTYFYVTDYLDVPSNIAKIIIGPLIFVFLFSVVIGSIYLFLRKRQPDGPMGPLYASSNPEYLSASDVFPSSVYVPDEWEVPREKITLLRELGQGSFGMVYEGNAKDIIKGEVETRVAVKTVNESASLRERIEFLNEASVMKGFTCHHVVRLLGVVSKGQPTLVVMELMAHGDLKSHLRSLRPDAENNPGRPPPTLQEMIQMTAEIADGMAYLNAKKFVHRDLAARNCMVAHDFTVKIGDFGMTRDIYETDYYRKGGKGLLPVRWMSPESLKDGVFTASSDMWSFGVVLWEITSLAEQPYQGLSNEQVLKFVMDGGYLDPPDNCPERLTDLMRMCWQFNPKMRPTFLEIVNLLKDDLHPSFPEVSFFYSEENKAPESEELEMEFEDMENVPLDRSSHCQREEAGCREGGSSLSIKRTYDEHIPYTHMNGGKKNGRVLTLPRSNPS

Chain of Mitogen-activated protein kinase 14 (Q16539 whole entry): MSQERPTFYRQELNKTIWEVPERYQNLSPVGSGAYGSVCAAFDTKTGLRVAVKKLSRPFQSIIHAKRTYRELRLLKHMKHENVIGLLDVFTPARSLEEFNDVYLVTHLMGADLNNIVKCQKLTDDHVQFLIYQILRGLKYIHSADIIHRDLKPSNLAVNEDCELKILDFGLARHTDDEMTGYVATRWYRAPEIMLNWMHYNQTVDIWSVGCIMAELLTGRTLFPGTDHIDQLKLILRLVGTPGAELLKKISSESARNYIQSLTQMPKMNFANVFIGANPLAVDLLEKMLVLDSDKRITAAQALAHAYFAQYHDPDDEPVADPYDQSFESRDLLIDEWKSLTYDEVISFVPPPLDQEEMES
Chain of 5-hydroxytryptamine receptor 4 (O70528 whole entry): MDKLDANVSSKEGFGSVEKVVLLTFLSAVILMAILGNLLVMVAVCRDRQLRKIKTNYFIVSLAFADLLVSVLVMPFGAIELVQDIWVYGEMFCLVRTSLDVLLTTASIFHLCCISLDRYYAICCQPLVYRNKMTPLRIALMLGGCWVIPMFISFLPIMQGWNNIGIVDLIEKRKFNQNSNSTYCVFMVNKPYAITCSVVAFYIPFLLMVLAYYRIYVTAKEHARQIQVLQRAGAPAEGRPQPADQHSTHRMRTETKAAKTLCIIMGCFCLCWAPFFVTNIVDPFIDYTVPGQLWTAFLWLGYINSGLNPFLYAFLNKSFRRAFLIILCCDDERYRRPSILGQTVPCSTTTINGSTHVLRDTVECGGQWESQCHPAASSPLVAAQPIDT
Chain of D(1A) dopamine receptor (P21728 whole entry): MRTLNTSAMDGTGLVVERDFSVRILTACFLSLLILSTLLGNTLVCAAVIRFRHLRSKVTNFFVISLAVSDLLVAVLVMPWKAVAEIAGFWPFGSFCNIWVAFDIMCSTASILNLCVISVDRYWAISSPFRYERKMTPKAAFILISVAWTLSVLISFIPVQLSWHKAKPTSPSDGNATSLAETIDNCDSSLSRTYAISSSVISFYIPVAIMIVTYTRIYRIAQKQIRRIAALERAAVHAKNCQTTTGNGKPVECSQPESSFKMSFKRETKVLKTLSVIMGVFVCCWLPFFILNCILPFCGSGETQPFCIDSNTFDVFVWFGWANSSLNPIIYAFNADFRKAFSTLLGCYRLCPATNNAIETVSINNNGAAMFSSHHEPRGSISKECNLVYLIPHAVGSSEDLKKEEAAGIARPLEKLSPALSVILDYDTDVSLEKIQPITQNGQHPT
Chain of Tyrosine-protein kinase Fyn (P06241 whole entry): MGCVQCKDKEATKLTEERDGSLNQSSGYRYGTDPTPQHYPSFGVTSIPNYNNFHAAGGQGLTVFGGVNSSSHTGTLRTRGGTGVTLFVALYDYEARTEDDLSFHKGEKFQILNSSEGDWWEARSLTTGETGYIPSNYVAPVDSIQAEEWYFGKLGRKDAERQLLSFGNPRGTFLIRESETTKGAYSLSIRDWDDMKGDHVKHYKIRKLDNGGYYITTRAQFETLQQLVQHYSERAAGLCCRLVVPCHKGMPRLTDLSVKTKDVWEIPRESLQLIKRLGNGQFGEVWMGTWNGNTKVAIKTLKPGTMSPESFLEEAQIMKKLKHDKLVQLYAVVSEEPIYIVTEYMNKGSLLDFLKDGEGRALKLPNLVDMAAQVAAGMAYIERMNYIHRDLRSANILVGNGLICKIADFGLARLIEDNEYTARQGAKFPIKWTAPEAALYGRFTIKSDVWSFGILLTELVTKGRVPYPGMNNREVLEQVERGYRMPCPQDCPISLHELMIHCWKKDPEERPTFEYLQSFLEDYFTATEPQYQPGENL
Chain of Sodium-dependent dopamine transporter (Q01959 whole entry): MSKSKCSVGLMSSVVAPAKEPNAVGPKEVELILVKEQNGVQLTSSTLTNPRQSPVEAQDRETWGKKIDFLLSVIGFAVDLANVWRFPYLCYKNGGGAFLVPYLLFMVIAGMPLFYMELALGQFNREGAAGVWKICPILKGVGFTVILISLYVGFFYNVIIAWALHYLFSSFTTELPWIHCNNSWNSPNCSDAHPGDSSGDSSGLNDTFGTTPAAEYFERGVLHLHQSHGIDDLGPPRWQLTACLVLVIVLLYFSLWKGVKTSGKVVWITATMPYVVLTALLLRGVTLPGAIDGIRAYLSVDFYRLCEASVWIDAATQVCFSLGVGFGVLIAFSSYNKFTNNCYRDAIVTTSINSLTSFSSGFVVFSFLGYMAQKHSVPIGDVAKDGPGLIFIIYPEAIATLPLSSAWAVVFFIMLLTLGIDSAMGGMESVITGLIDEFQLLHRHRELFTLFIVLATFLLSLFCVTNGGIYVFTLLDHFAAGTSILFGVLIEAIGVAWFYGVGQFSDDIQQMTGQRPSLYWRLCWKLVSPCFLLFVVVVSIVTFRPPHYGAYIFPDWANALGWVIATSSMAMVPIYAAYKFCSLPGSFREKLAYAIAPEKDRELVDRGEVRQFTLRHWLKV
Chain of Mitogen-activated protein kinase 1 (P28482 whole entry): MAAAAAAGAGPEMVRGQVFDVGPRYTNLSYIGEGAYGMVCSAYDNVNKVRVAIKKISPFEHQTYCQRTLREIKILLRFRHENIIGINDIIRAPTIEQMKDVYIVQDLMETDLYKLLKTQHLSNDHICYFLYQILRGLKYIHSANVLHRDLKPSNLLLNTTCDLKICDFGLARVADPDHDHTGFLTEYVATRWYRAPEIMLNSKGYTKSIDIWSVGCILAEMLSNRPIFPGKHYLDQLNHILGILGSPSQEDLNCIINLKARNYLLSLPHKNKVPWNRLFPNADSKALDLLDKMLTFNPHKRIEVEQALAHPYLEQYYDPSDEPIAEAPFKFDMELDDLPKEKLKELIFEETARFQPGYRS

| SMILES | IC50 (D(1A) dopamine receptor) | IC50 (Calcitonin receptor) | IC50 [1] | Ki [1] | IC50 [2] | Ki [2] | IC50 [3] | Ki [3] | IC50 [4] | IC50 [5] | Ki [5] | IC50 [6] | IC50 (Neutrophil elastase) | IC50 [10] | IC50 [11] | Ki [11] | IC50 [12] | Ki [12] | IC50 [13] | IC50 [14] | further results |
| --- | --- | --- | --- | --- | --- | --- | --- | --- | --- | --- | --- | --- | --- | --- | --- | --- | --- | --- | --- | --- | --- |
| c1ccc2[nH]c(-c3cscn3)nc2c1 [THIABENDAZOLE] | Not Active | Not Active | Not Active | Not Active | Not Active | Not Active | Not Active | Not Active | Not Active | Not Active | Not Active | Not Active | Not Active | Not Active | Not Active | Not Active | Not Active | Not Active | Not Active | Not Active | IC50 [7]: Not Active; IC50 [8]: Not Active; IC50 ([9]; cho-k1): Not Active; Ki [14]: Not Active; IC50 ([15]; insect cells): Not Active; IC50 [16]: Not Active; IC50 (Insulin receptor): Not Active |
| COc1ccc(C(CN(C)C)C2(O)CCCCC2)cc1 (stereo not drawn) [VENLAFAXINE] | Not Active | Not Active | Not Active | Not Active | Not Active | Not Active | Not Active | Not Active | Not Active | Not Active | Not Active | Not Active | Not Active | Not Active | Not Active | Not Active | Not Active | Not Active | Not Active | Not Active | IC50 [7]: Not Active; IC50 [8]: Not Active; IC50 ([9]; cho-k1): Not Active; Ki [14]: Not Active; IC50 ([15]; insect cells): Not Active; IC50 [16]: Not Active; IC50 (Insulin receptor): Not Active |
| CC(C)(C)NC(=O)[C@@H]1CN(Cc2cccnc2)CCN1C[C@@H](O)C[C@@H](Cc1ccccc1)C(=O)N[C@H]1c2ccccc2C[C@H]1O.O | Not Active | Not Active | Not Active | Not Active | Not Active | Not Active | Not Active | Not Active | Not Active | Not Active | Not Active | Not Active | Not Active | Not Active | Not Active | Not Active | Not Active | Not Active | Not Active | Not Active | IC50 [7]: Not Active; IC50 [8]: Not Active; IC50 ([9]; cho-k1): Not Active; Ki [14]: Not Active; IC50 ([15]; insect cells): Not Active; IC50 [16]: Not Active; IC50 (Insulin receptor): Not Active |
| COC(=O)[C@@H]1[C@H]2C[C@H]3c4[nH]c5ccccc5c4CCN3C[C@@H]2CC[C@@H]1O [YOHIMBINE] | Not Active | Not Active | Not Active | Not Active | Not Active | Not Active | Not Active | Not Active | Not Active | Not Active | Not Active | Not Active | Not Active | Not Active | Not Active | Not Active | Not Active | Not Active | Not Active | Not Active | IC50 [7]: Not Active; IC50 [8]: Not Active; IC50 ([9]; cho-k1): Not Active; Ki [14]: Not Active; IC50 ([15]; insect cells): Not Active; IC50 [16]: Not Active; IC50 (Insulin receptor): Not Active |
| Clc1ccc(C(c2ccccc2Cl)C(Cl)Cl)cc1 (stereo not drawn) [MITOTANE] | Not Active | Not Active | Not Active | Not Active | Not Active | Not Active | Not Active | Not Active | Not Active | Not Active | Not Active | Not Active | Not Active | Not Active | Not Active | Not Active | Not Active | Not Active | Not Active | Not Active | IC50 [7]: Not Active; IC50 [8]: Not Active; IC50 ([9]; read-out: IC50): 1000 nM; Ki ([9]; read-out: Ki): 795 nM; Ki [14]: Not Active; IC50 ([15]; insect cells): Not Active; IC50 [16]: Not Active; IC50 (Insulin receptor): Not Active |
| Oc1c(I)cc(I)c2cccnc12 [IODOQUINOL] | Not Active | Not Active | Not Active | Not Active | Not Active | Not Active | Not Active | Not Active | Not Active | Not Active | Not Active | Not Active | Not Active | Not Active | Not Active | Not Active | Not Active | Not Active | Not Active | Not Active | IC50 ([7]; read-out: IC50): 364 nM; IC50 ([8]; read-out: IC50): 294 nM; IC50 ([9]; cho-k1): Not Active; Ki [14]: Not Active; IC50 ([15]; read-out: IC50): 1570 nM; IC50 [16]: Not Active; IC50 (Insulin receptor): Not Active |

From ChEMBL document CHEMBL1909046, “DrugMatrix in vitro pharmacology data”
